*1 amine or outer side, *2 acyl side, *3 side chain or, on linkers, in order; H or OH if unused. Where a SMILES comes first, the peptide text is derived from it. Bridges are numbered along the chain shown (N, C = ends). [ ]: non-standard residue; d: D form. The star is where a group is joined. DOTA = O=C(O)CN1CCN(CC(=O)O)CCN(CC(=O)*)CCN(CC(=O)O)CC1; Phe(4-SO3H) = N[C@@H](Cc1ccc(S(=O)(=O)O)cc1)C(=O)O; Cyclopentanecarbonyl = O=C(C1CCCC1)*; cisHyp = O=C(O)[C@@H]1C[C@H](O)CN1; Hyp = O=C(O)[C@@H]1C[C@@H](O)CN1; Cit = NC(=O)NCCC[C@H](N)C(=O)O; hCys = N[C@@H](CCS)C(=O)O; dNMeA = CN[C@H](C)C(=O)O; Nva = CCC[C@H](N)C(=O)O; Pentanoyl = CCCCC(=O)*; CO = O=C([*:1])[*:2]; CH2 = C([*:1])[*:2]; X7 = CCCOCC(=O)*; NHPr = CCCN*
Legend:
[1] = biological target: T1, human uPAR (uPAR-Fc) (Homo sapiens, UniProt Q03405); assay: Surface plasmon resonance (SPR) assay, single cycle kinetics; format: binding; conditions: pKD category for uPAR SPR activity assay; uPAR-Fc on Protein A-Chip, 25°C; read-out: pKD CAT (converted)
T1 construct: comprising amino acids Leu23-Arg303 according to UniProt entry Q03405.1; purchased R&D Systems 10378-UK-100
Method in brief: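 uPAR-Fc (Leu23-Arg303 extracellular domains, human IgG1 Fc) captured on Protein A chip to ~2000 RU; single-cycle kinetics at 25°C in HEPES running buffer pH 7.4 with 0.1% DMSO. KD from double-referenced sensorgrams fitted to 1:1 Langmuir model, reported as pKD.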

[2] = biological target: T2, uPAR-expressing HEC-265 human endometrial adenocarcinoma cells (Homo sapiens, UniProt Q03405); assay: Competitive FACS binding assay; conditions: pIC50 category of FACS binding
T2 construct: Cell surface uPAR-expressing HEC-265 human endometrial adenocarcinoma cells; host or cells: HEC-265
Method in brief: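 Competitive displacement of a 10 nM biotinylated peptide from HEC-265 cells (1 h, 4 °C, PBS/1% BSA), detected via APC-streptavidin by flow cytometry. pIC50 from four-parameter logistic fit of median fluorescence versus concentration.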

T2 sequence (Q03405 23-335): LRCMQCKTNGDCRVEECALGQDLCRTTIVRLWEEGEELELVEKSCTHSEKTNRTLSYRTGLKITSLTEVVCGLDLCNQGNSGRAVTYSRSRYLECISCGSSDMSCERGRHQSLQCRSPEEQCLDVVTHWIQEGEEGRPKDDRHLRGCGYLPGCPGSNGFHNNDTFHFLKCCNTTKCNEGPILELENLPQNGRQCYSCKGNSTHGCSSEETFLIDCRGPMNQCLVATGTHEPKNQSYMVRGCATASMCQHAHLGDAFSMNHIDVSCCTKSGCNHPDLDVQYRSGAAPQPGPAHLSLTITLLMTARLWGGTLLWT
T1 sequence (Q03405 23-303): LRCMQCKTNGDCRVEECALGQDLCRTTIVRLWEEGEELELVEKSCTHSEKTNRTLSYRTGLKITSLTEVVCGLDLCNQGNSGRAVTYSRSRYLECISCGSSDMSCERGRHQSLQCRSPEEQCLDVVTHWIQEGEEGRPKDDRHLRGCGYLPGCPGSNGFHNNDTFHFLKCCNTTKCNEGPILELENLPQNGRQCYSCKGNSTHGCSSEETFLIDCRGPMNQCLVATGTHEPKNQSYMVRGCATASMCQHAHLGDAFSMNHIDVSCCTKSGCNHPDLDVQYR

| Kd [1] [nM] | IC50 [2] [nM] | Compound |
| --- | --- | --- |
| 1.58 to 10 | ≤ 10 | CCCCC(=O)N[C@H]1CSSC[C@@H](C(N)=O)NC(=O)[C@H](CCC)NC(=O)[C@H]([C@@H](C)CC)NC(=O)[C@@H]2C[C@@H](O)CN2C(=O)[C@@H]2CCCN2C(=O)[C@H](Cc2ccccc2)NC(=O)[C@H](Cc2ccc(S(=O)(=O)O)cc2)NC(=O)[C@H](CCCCNC(=O)CN2CCN(CC(=O)O)CCN(CC(=O)O)CCN(CC(=O)O)CC2)NC(=O)[C@H](CCCNC(N)=O)NC1=O [UPAR-209, Pent-[Cys-Cit-Lys(DOTA)-Fso-Phe-Pro-Hyp-Ile-Nva-Cys]-NH2] (Pentanoyl-C[Cit]K(DOTA)[Phe(4-SO3H)]FP[Hyp]I[Nva]C-NH2; disulfide 1-10) |
| > 100 | ≥ 126 | CCCCC(=O)N[C@H]1CSSC[C@@H](C(N)=O)NC(=O)[C@H](CCC)NC(=O)[C@H]([C@@H](C)CC)NC(=O)[C@@H]2C[C@@H](O)CN2C(=O)[C@@H](C)N(C)C(=O)[C@H](Cc2ccccc2)NC(=O)[C@H](Cc2ccc(O)cc2)NC(=O)[C@H](CCC(N)=O)NC(=O)[C@H](CCCNC(=N)N)NC1=O [UPAR-211, Pent-[Cys-Arg-Gln-Tyr-Phe-nma-Hyp-Ile-Nva-Cys]-NH2] (Pentanoyl-CRQYF[dNMeA][Hyp]I[Nva]C-NH2; disulfide 1-10) |
| 10 to 100 | 12.6 to 31.6 | CCCOCC(=O)N[C@H]1CSSC[C@@H](C(N)=O)NC(=O)[C@H](CC(C)C)NC(=O)[C@H]([C@@H](C)CC)NC(=O)[C@@H](C)NC(=O)[C@@H]2CCCN2C(=O)[C@H](Cc2ccccc2)NC(=O)[C@H](Cc2ccc(O)cc2)NC(=O)[C@H](CCC(N)=O)NC(=O)[C@H](CCCNC(N)=O)NC1=O [UPAR-212, PrOAc-[Cys-Cit-Gln-Tyr-Phe-Pro-ala-Ile-Leu-Cys]-NH2] (X7-C[Cit]QYFP[dA]ILC-NH2; disulfide 1-10) |
| 1.58 to 10 | ≤ 10 | CCCCC(=O)N[C@H]1CSSCC[C@@H](C(N)=O)NC(=O)[C@H](CCC)NC(=O)[C@H]([C@@H](C)CC)NC(=O)[C@@H]2C[C@@H](O)CN2C(=O)[C@@H]2CCCN2C(=O)[C@H](Cc2ccccc2)NC(=O)[C@H](Cc2ccc(O)cc2)NC(=O)[C@H](CCC(N)=O)NC(=O)[C@H](CCCNC(=N)N)NC1=O [UPAR-213, Pent-[Cys-Arg-Gln-Tyr-Phe-Pro-Hyp-Ile-Nva-Hcy]-NH2] (Pentanoyl-CRQYFP[Hyp]I[Nva][hCys]-NH2; disulfide 1-10) |
| < 1.58 | ≤ 10 | CCCCC(=O)N[C@H]1CSSC[C@@H](C(N)=O)NC(=O)[C@H](CCC)NC(=O)[C@H]([C@@H](C)CC)NC(=O)[C@@H]2C[C@H](O)CN2C(=O)[C@@H]2CCCN2C(=O)[C@H](Cc2ccccc2)NC(=O)[C@H](Cc2ccc(O)cc2)NC(=O)[C@H](CCCCNC(=O)CN2CCN(CC(=O)O)CCN(CC(=O)O)CCN(CC(=O)O)CC2)NC(=O)[C@H](CCCNC(N)=O)NC1=O [UPAR-214, Pent-[Cys-Cit-Lys(DOTA)-Tyr-Phe-Pro-Chy-Ile-Nva-Cys]-NH2] (Pentanoyl-C[Cit]K(DOTA)YFP[cisHyp]I[Nva]C-NH2; disulfide 1-10) |

Continued, compound first:

| Compound | Kd [1] [nM] | IC50 [2] [nM] |
| --- | --- | --- |
| CC[C@H](C)[C@@H]1NC(=O)[C@@H](C)NC(=O)[C@@H]2CCCN2C(=O)[C@H](Cc2ccccc2)NC(=O)[C@H](Cc2ccc(O)cc2)NC(=O)[C@H](CCC(N)=O)NC(=O)[C@H](CCCNC(N)=O)NC(=O)[C@@H](NC(=O)C2CCCC2)CSSC[C@@H](C(N)=O)NC(=O)[C@H](CC(C)C)NC1=O [UPAR-208, Cp-[Cys-Cit-Gln-Tyr-Phe-Pro-ala-Ile-Leu-Cys]-NH2] (Cyclopentanecarbonyl-C[Cit]QYFP[dA]ILC-NH2; disulfide 1-10) | < 1.58 | ≤ 10 |
| CCCNC(=O)N[C@H]1CSSC[C@@H](C(N)=O)NC(=O)[C@H](CCC)NC(=O)[C@H]([C@@H](C)CC)NC(=O)[C@@H]2C[C@@H](O)CN2C(=O)[C@@H]2CCCN2C(=O)[C@H](Cc2ccccc2)NC(=O)[C@H](Cc2ccc(O)cc2)NC(=O)[C@H](CCCCNC(=O)CN2CCN(CC(=O)O)CCN(CC(=O)O)CCN(CC(=O)O)CC2)NC(=O)[C@H](CCCNC(N)=O)NC1=O [UPAR-210, PrCAyl-[Cys-Cit-Lys(DOTA)-Tyr-Phe-Pro-Hyp-Ile-Nva-Cys]-NH2] ({NHPr-CO}-C[Cit]K(DOTA)YFP[Hyp]I[Nva]C-NH2; disulfide 1-10) | < 1.58 | ≤ 10 |
| CCCCC(=O)N[C@H]1CSCSC[C@@H](C(N)=O)NC(=O)[C@H](CCC)NC(=O)[C@H]([C@@H](C)CC)NC(=O)[C@@H]2C[C@@H](O)CN2C(=O)[C@@H]2CCCN2C(=O)[C@H](Cc2ccccc2)NC(=O)[C@H](Cc2ccc(O)cc2)NC(=O)[C@H](CCC(N)=O)NC(=O)[C@H](CCCNC(N)=O)NC1=O [UPAR-215, Pent-[Smc-Cit-Gln-Tyr-Phe-Pro-Hyp-Ile-Nva-Cys]-NH2] (Pentanoyl-C[Cit]QYFP[Hyp]I[Nva]C-NH2; linker 1-10 via CH2) | 1.58 to 10 | 12.6 to 31.6 |
